Measurements: patent US20080293931A1, “Methods and compositions for the removal of nucleic acid amplification inhibitors” (priority 2006, published 2008)
“Also recorded” adds a separate entry of the source.

Legend:
[1] = Humic acid (HA) removal from aqueous commercial HA solutions by PIR compounds, fluorimetric HA determination; set-up: key to ε values: ε = −log(1 − efficiency); efficiency = ([HA]i − [HA]f)/[HA]i; details: for performance as PIR compound (in words): commercial humic acid solutions; for Average Efficiency, ε / Avg Reduction Factor: aqueous humic samples seeded with E. coli DNA
Method: Humic solutions were in 1×TAE buffer at RT with pH˜7. […] Samples from PIR experiments utilizing these materials were diluted, using 1×TAE, to concentrations falling within the linear response region representative of the humic material used.
In this study, when samples were interrogated for humic acid concentrations via fluorimetry, known concentrations of commercial humic acids were compared to known concentrations of humic standards.
FIG. 1 compares the HA removal from samples containing DNA of interest to the molar concentration of varied PIR compounds by plotting an HA reduction factor as the initial [HA] divided by [HA] following treatment with PIR compounds. The commercially available PIR kit, from Mo-BIO, is placed on FIG. 1 for comparison and was arbitrarily assigned a molar concentration of 1 for convenience. […] The data shown in FIG. 1 were generated from varied initial [HA], ranging from ˜5,000 to 300,000 mg/L HA. These varied initial [HA] values represent a “worst case” scenario and these are in comparison to initial [HA] in extractions from problematic soils generating humic acid concentrations typically less than 5,000 mg/L.
FIG. 2 plots the data from the same experiments represented in FIG. 1, but applying a different approach for data metric. FIG. 2 plots a dimensionless HA removal efficiency (or efficacy) value versus the decade of dilution necessary for successful PCR. The efficiency of HA removal is defined in equation 1 as the initial [HA] minus the final [HA] divided by the initial [HA]. This is essentially a percent removal approach.
Efficiency=[HA]i−[HA]f/[HA]; (1)
To further discriminate efficiency values greater than 0.99, the efficiency was subtracted from the integer value of 1, and the −log was taken of 1-efficiency to generate a non-negative value indicative of HA removal efficiency with greater level of discrimination and resolution of values with high degrees of HA removal. This is described by equation 2.

[2] = test system: E. coli DNA; assay: PCR of seeded E. coli DNA after PIR treatment of aqueous HA samples (decade of dilution necessary for successful PCR); details: for Typical dilution decade for PCR / range of dilutions (dilution decade for PCR): aqueous humic samples seeded with E. coli DNA; for Decade of dilution: 30 days storage
Method: Consideration of dilution factors for successful PCR must also be reviewed. In untreated soil extracts containing DNA of interest, successful PCR of the extracted DNA may occur when the polymerase inhibitor is diluted sufficiently such that inhibition is suppressed and PCR may occur. Typical values for the dilution decade at which PCR is successful in samples containing humic materials and DNA of interest are often around decade four (1×10^4). Accordingly, a dilution factor of 10,000 would be necessary for successful PCR in a typical soil extract/sample. This magnitude of dilution may also impact PCR sensitivity for DNA/species already present at low concentrations and result in not identifying an organism that was present in the original sample extract.
Using this approach for presenting the HA removal data allows for the determination of a PIR compound's effectiveness for HA removal (ε) and compatibility for application in PCR systems via dilution data for PCR.

[3] = PIR 1 M, HAi avg 6,500-12,300 depending on compound (Table 6 c2)
[4] = 4.0 M AMG in phosphate buffer, 30 days storage, 4 C., dark, HA avg ~10,000 mg/L
[5] = 4.0 M AMG in phosphate buffer, 30 days storage, 25 C., dark, HA avg ~10,000 mg/L
[6] = 4.0 M AMG in phosphate buffer, 30 days storage, 25 C., light, HA avg ~10,000 mg/L
[7] = 4.0 M AMG in phosphate buffer, 30 days storage, −20 C., dark, HA avg ~10,000 mg/L
[8] = 5.5 M AMG in phosphate buffer, 30 days storage, 4 C., dark, HA avg ~10,000 mg/L
[9] = 5.5 M AMG in phosphate buffer, 30 days storage, 25 C., dark, HA avg ~10,000 mg/L
[10] = 5.5 M AMG in phosphate buffer, 30 days storage, 25 C., light, HA avg ~10,000 mg/L
[11] = 5.5 M AMG in phosphate buffer, 30 days storage, −20 C., dark, HA avg ~10,000 mg/L
[12] = 0.1M DTPB in phosphate buffer, 30 days storage, 4 C., dark, HA avg 50,300 mg/L
[13] = 0.1M DTPB in phosphate buffer, 30 days storage, 25 C., dark, HA avg 50,300 mg/L
[14] = 0.1M DTPB in phosphate buffer, 30 days storage, 25 C., light, HA avg 50,300 mg/L
[15] = 0.1M DTPB in phosphate buffer, 30 days storage, −20 C., dark, HA avg 50,300 mg/L
[16] = 1.0M DTPB in phosphate buffer, 30 days storage, 4 C., dark, HA avg 50,300 mg/L
[17] = 1.0M DTPB in phosphate buffer, 30 days storage, 25 C., dark, HA avg 50,300 mg/L
[18] = 1.0M DTPB in phosphate buffer, 30 days storage, 25 C., light, HA avg 50,300 mg/L
[19] = 1.0M DTPB in phosphate buffer, 30 days storage, −20 C., dark, HA avg 50,300 mg/L
[20] = 2M DTPB in phosphate buffer, 30 days storage, 4 C., dark, HA avg 50,300 mg/L
[21] = 2M DTPB in phosphate buffer, 30 days storage, 25 C., dark, HA avg 50,300 mg/L
[22] = 2M DTPB in phosphate buffer, 30 days storage, 25 C., light, HA avg 50,300 mg/L
[23] = 2M DTPB in phosphate buffer, 30 days storage, −20 C., dark, HA avg 50,300 mg/L

## CC(=O)C[n+]1ccsc1
[1]
  performance as PIR compound (in words): did not perform well

## 1-thiazole-2-propanone bromide [BAT]
[1]; [3]
  Average Efficiency, ε: 0.51
  Avg Reduction Factor: 3
[1]
  performance as PIR compound (in words): poor performance
[2]; [3]
  Typical dilution decade for PCR: 4
  range of dilutions (dilution decade for PCR): 3-4

## N=C(N)NN [AMG, Aminoguanidine, reference compound]
[1]; [4]
  HA reduction factor: 7
  ε values: 0.83
[1]; [5]
  HA reduction factor: 6
  ε values: 0.81
[1]; [6]
  HA reduction factor: 6
  ε values: 0.80
[1]; [7]
  HA reduction factor: 4
  ε values: 0.65
[1]; 4.0M AMG, 30 days storage
  ε values: less than 1
[1]; [8]
  HA reduction factor: 14
  ε values: 1.15
[1]; [9]
  HA reduction factor: 15
  ε values: 1.16
[1]; [10]
  HA reduction factor: 19
  ε values: 1.13
[1]; [11]
  HA reduction factor: 19
  ε values: 1.28
[1]; 5.5 M AMG, 30 days storage
  ε values: less than 1.3
[1]; AMG 4.0 and 5.5 M, 30 days storage, HA ~10,000 mg/L
  Typical HA reduction factors: less than 20
[1]; PIR 4 M, HAi avg 35,000
  Average Efficiency, ε: 0.77
  Avg Reduction Factor: 6
[1]
  performance as PIR compound (in words): poor performance
[2]; 4.0 M AMG in phosphate buffer, 4 C., dark, HA avg ~10,000 mg/L
  Decade of dilution: 2
[2]; 4.0 M AMG in phosphate buffer, 25 C., dark, HA avg ~10,000 mg/L
  Decade of dilution: 2
[2]; 4.0 M AMG in phosphate buffer, 25 C., light, HA avg ~10,000 mg/L
  Decade of dilution: 2
[2]; 4.0 M AMG in phosphate buffer, −20 C., dark, HA avg ~10,000 mg/L
  Decade of dilution: 2
[2]; 5.5 M AMG in phosphate buffer, 4 C., dark, HA avg ~10,000 mg/L
  Decade of dilution: 2
[2]; 5.5 M AMG in phosphate buffer, 25 C., dark, HA avg ~10,000 mg/L
  Decade of dilution: 2
[2]; 5.5 M AMG in phosphate buffer, 25 C., light, HA avg ~10,000 mg/L
  Decade of dilution: 2
[2]; 5.5 M AMG in phosphate buffer, −20 C., dark, HA avg ~10,000 mg/L
  Decade of dilution: 2
[2]; PIR 4 M, HAi avg 35,000
  Typical dilution decade for PCR: 4
  range of dilutions (dilution decade for PCR): 3-4
[2]; both 4.0 and 5.5 M AMG
  dilution required for successful PCR products: 2 orders of magnitude

## O=C(C[n+]1ccsc1)C[n+]1ccsc1 [DTPB, 1,3-Dithiazole-2-Propanone Dibromide]
[1]; [12]
  HA reduction factor: 5
  ε values: 0.70
[1]; [13]
  HA reduction factor: 6
  ε values: 0.76
[1]; [14]
  HA reduction factor: 6
  ε values: 0.75
[1]; [15]
  HA reduction factor: 7
  ε values: 0.87
[1]; [16]
  HA reduction factor: 143
  ε values: 2.16
[1]; [17]
  HA reduction factor: 160
  ε values: 2.20
[1]; [18]
  HA reduction factor: 194
  ε values: 2.29
[1]; [19]
  HA reduction factor: 114
  ε values: 2.06
[1]; [20]
  HA reduction factor: 64
  ε values: 1.81
[1]; [21]
  HA reduction factor: 99
  ε values: 1.99
[1]; [22]
  HA reduction factor: 107
  ε values: 2.03
[1]; [23]
  HA reduction factor: 50
  ε values: 1.70
[1]; [3]
  Average Efficiency, ε: 2.18
  Avg Reduction Factor: 153
[1]
  performance as PIR compound (in words): poor performance
[2]; 0.1M DTPB in phosphate buffer, 4 C., dark, HA avg 50,300 mg/L
  Decade of dilution: 2
[2]; 0.1M DTPB in phosphate buffer, 25 C., dark, HA avg 50,300 mg/L
  Decade of dilution: 2
[2]; 0.1M DTPB in phosphate buffer, 25 C., light, HA avg 50,300 mg/L
  Decade of dilution: 2
[2]; 0.1M DTPB in phosphate buffer, −20 C., dark, HA avg 50,300 mg/L
  Decade of dilution: 2
[2]; 1.0M DTPB in phosphate buffer, 4 C., dark, HA avg 50,300 mg/L
  Decade of dilution: 1
[2]; 1.0M DTPB in phosphate buffer, 25 C., dark, HA avg 50,300 mg/L
  Decade of dilution: 1
[2]; 1.0M DTPB in phosphate buffer, 25 C., light, HA avg 50,300 mg/L
  Decade of dilution: 1
[2]; 1.0M DTPB in phosphate buffer, −20 C., dark, HA avg 50,300 mg/L
  Decade of dilution: 1
[2]; 2M DTPB in phosphate buffer, 4 C., dark, HA avg 50,300 mg/L
  Decade of dilution: 1
[2]; 2M DTPB in phosphate buffer, 25 C., dark, HA avg 50,300 mg/L
  Decade of dilution: 1
[2]; 2M DTPB in phosphate buffer, 25 C., light, HA avg 50,300 mg/L
  Decade of dilution: 1
[2]; 2M DTPB in phosphate buffer, −20 C., dark, HA avg 50,300 mg/L
  Decade of dilution: 1
[2]; [3]
  Typical dilution decade for PCR: 2
  range of dilutions (dilution decade for PCR): 1-2

## Nc1ccc(C(=O)C[n+]2ccsc2)cc1.[Br-] [PTB-A, 4-Amine-Phenacyl Thiazolium Bromide]
[1]
  performance as PIR compound (in words): did not perform well; also recorded: poor performance
